Results as given in patent publication US12312329B2, “Aminopyrimidine compound used for inhibiting activity of protein kinase” (Shenzhen TargetRx, Inc., priority 2018, dated 2025).
pIC50: −log10 of the molar value. Where two headings read alike, the source gives them in different places.

Tests used:
WT EGFR = WT EGFR (Homo sapiens (Human), UniProt P00533); test: Kinase inhibition assay (HTRF Kinase TK), WT EGFR; assay type: biochemical
Text: (§1) WT EGFR (Carna, Cat. No 08-115), EGFR[L858R] (Carna, Cat. No 08-502), EGFR[L858R/T790M] (Carna, Cat. No 08-510), ATP (Sigma, Cat. No A7699-1G), DMSO (Sigma, Cat. No D2650), 96-well plate (Corning, Cat. No 3365), 384-well plate (Greiner, Cat. No 784076). HTRF Kinase TK Kit (Cisbio. Cat. No 62TK0PEJ), erlotinib (Selleckchem, Cat. No S7787), EGFR[d746-750] (Life Technologies, Cat. No PV6178), 5× kinase buffer A (Life Technologies, Cat. No PV3186), kinase tracer 199 (Life Technologies, Cat. No PV5830), LanthaScreen® Eu-anti-GST antibody (Life Technologies, Cat. No PV5594).
(§2) Formulation of compound: The test compound was dissolved in DMSO to prepare a 20 mM stock solution. The stock solution was then serially diluted 3-fold in DMSO to obtain ten concentrations. After the compound was added, a 10-fold dilution was performed with buffer.
(§3) WT EGFR and EGFR[L858R/T790M] kinase detection: In 5× kinase buffer A, WT EGFR or EGFR[L858R/T790M] kinase was mixed with different concentrations of compounds prepared by pre-dilution for 10 minutes. Each concentration was tested in duplicate. The corresponding substrate and ATP were added, and reaction was performed at room temperature for 20 minutes (negative and positive controls were provided: the negative control was a blank control, and the positive control was erlotinib). After completion of the reaction, detection reagents (reagents in the HTRF Kinase TK kit) were added. After incubating for 30 minutes at room temperature, enzyme activity in the presence of various concentrations of the compounds of the present disclosure was determined by Evnvision microplate reader, and inhibitory activity of different concentrations of the compounds on enzyme activity was calculated. The inhibitory activity of different concentrations of the compounds on enzyme activity was then fitted by Graphpad 5.0 software according to the four-parameter equation, and the IC50 value was calculated.

[1] = tested on: lung cancer cell HCC827 (Del19); test: Cytotoxicity assay (MTS cell viability), HCC827; assay type: cell-based; settings: Homo sapiens, 72 hours
Method: (§4) In vitro anti-proliferation activity of the compound of the present disclosure on three tumor cell lines cultured in vitro was detected by the MTS method.
(§5) Cell lines: skin cancer cell A431 (purchased from the American Type Culture Collection (ATCC)); lung cancer cell NCI-H1975 (purchased from the American Type Culture Collection (ATCC)) and HCC827 (purchased from the American Type Culture Collection (ATCC)); all were cultured with RPM11640 medium containing 10% fetal bovine serum, 100 U/ml penicillin, and […] streptomycin.
(§6) Reagents and materials: RPMI-1640 (GIBCO, Cat. No A10491-01); fetal bovine serum (GIBCO, Cat. No 10099141): 0.25% trypsin-EDTA (GIBCO, Cat. No 25200); penicillin-streptomycin; liquid (GIBCO, Cat. No 15140-122); DMSO (Sigma, Cat. No D2650); MTS Assay Kit (Promega, Cat. No G3581), 96-well plate (Corning, Cat. No 3365).
as §2, with “solution, which was stored at −20° C.” for “solution.”, “4-fold” for “10-fold”, “cell culture medium.” for “buffer.”
(§7) MTS cell viability assay: cells in logarithmic growth phase was digested with 0.25% trypsin-EDTA, and 150 μl of the cells was inoculated in a 96-well plate at an optimized density. After 24 hours, the compound diluted 4 fold in the medium was added, 50 μl/well (generally ten concentrations were selected: 100, 33.3, 11.1, 3.70, 1.23, 0.412, 0.137, 0.0457, 0.0152, 0.00508 μM). The same volume of 0.5% DMSO was added in wells as a control. After the cells were cultured for another 72 hours, the cell viability was detected by MTS.
(§8) Specific procedure: The cells were adhered. The medium was discarded. A mixture containing 20 μL MTS and 100 μl medium was added to each well. After incubating for 1-4 hours in an incubator, OD490 was detected, with the OD650 value as a reference. A dose-effect curve was made using GraphPad Prism software and IC50 was calculated.

[2] = Pharmacokinetic assay in rats; assay type: in vivo, Sprague-Dawley rats; settings: rat; for AUC(0-t) / Cmax / Tmax / half-life / AUC(0-inf) / MRT inf / bioavailability: male, Sprague-Dawley, plasma; for AUC(0-inf): read-out: AUCINF_pred; for MRT inf: read-out: MRTINF_pred; for bioavailability: PO 10 mg/kg vs IV 0.5 mg/kg
Method: Six male Sprague-Dawley rats (7-8 weeks old, and weighing about 210 g) were divided into 2 groups, 3 rats in each group. A single dose of compounds (10 mg/kg orally) was administered intravenously or orally to compare their pharmacokinetics.
The rats were fed with standard feed and water. Fasting was started 16 hours before the assay. The drug was dissolved in PEG400 and dimethyl sulfoxide. Blood was collected from the orbit. The time points for blood collection were 0.083 hours, 0.25 hours, 0.5 hours, 1 hour, 2 hours, 4 hours, 6 hours, 8 hours, 12 hours and 24 hours after administration.
The rats were briefly anesthetized after inhaling diethyl ether, and 300 μL of blood sample was collected from the orbit into a test tube containing 30 μL of 1% heparin salt solution. Before use, the test tube was oven dried overnight at 60° C. After the blood sample was collected at the last time point, the rats were anesthetized with diethyl ether and then sacrificed.
Immediately after the blood sample was collected, the test tube was gently inverted at least 5 times to ensure sufficient mixing, and then placed on ice. The blood sample was centrifuged at 5000 rpm at 4° C. for 5 minutes to separate the plasma from the red blood cells. 100 μL of plasma was aspirated into a clean plastic centrifuge tube with a pipette, and the name of the compound and time point were marked. The plasma was stored at −80° C. before analysis. The concentration of the compound of the present disclosure in plasma was determined by LC-MS/MS. The pharmacokinetic parameters were calculated based on the blood drug concentration of each animal at different time points.

skin cancer cell A431 = test: Cytotoxicity assay (MTS cell viability), A431; assay type: cell-based; settings: Homo sapiens, A-431, 72 hours
Method: as §4, §5, §6
as §2, with “solution, which was stored at −20° C.” for “solution.”, “4-fold” for “10-fold”, “cell culture medium.” for “buffer.”
as §7, §8

EGFR[L858R/T790M] = EGFR[L858R/T790M] (Homo sapiens (Human), UniProt P00533, L858R/T790M); test: Kinase inhibition assay (HTRF Kinase TK), EGFR[L858R/T790M]; assay type: biochemical
Chain of EGFR[L858R/T790M] (P00533 25-1210 T790M/L858R): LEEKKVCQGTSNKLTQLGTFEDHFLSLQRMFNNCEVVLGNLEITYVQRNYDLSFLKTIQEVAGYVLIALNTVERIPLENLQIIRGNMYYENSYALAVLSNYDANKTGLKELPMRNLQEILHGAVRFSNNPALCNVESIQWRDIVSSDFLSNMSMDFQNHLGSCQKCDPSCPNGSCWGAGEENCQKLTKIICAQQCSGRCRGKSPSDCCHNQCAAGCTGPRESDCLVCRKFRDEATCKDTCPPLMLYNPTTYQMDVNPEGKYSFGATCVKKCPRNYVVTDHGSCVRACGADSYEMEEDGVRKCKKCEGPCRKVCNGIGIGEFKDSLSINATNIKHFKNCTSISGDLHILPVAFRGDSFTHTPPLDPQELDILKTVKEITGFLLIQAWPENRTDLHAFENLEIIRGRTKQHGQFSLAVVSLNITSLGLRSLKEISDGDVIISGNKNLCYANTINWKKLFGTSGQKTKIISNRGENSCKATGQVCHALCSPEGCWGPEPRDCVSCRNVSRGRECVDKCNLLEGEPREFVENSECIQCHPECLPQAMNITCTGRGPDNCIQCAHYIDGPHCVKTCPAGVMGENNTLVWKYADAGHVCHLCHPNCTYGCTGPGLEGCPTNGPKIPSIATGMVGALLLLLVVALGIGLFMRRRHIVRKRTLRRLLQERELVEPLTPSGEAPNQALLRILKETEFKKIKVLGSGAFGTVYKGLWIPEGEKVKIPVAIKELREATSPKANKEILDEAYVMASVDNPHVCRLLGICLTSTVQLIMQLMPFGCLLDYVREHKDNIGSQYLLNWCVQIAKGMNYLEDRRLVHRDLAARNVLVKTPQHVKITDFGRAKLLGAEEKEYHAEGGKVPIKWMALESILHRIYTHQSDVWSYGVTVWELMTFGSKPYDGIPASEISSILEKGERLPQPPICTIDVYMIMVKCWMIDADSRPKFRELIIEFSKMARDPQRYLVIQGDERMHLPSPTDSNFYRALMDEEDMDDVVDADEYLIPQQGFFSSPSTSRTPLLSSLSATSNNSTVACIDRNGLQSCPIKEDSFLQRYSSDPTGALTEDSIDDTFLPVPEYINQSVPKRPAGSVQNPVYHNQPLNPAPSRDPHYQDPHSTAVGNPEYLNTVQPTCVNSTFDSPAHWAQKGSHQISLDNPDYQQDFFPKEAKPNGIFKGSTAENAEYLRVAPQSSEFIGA
Text: as §1, §2, §3

[3] = tested on: lung cancer cell NCI-H1975 (L858R/T790M); test: Cytotoxicity assay (MTS cell viability), NCI-H1975; assay type: cell-based; settings: Homo sapiens, 72 hours
Method: as §4, §5, §6
as §2, with “solution, which was stored at −20° C.” for “solution.”, “4-fold” for “10-fold”, “cell culture medium.” for “buffer.”
as §7, §8

Chain of WT EGFR (P00533 25-1210): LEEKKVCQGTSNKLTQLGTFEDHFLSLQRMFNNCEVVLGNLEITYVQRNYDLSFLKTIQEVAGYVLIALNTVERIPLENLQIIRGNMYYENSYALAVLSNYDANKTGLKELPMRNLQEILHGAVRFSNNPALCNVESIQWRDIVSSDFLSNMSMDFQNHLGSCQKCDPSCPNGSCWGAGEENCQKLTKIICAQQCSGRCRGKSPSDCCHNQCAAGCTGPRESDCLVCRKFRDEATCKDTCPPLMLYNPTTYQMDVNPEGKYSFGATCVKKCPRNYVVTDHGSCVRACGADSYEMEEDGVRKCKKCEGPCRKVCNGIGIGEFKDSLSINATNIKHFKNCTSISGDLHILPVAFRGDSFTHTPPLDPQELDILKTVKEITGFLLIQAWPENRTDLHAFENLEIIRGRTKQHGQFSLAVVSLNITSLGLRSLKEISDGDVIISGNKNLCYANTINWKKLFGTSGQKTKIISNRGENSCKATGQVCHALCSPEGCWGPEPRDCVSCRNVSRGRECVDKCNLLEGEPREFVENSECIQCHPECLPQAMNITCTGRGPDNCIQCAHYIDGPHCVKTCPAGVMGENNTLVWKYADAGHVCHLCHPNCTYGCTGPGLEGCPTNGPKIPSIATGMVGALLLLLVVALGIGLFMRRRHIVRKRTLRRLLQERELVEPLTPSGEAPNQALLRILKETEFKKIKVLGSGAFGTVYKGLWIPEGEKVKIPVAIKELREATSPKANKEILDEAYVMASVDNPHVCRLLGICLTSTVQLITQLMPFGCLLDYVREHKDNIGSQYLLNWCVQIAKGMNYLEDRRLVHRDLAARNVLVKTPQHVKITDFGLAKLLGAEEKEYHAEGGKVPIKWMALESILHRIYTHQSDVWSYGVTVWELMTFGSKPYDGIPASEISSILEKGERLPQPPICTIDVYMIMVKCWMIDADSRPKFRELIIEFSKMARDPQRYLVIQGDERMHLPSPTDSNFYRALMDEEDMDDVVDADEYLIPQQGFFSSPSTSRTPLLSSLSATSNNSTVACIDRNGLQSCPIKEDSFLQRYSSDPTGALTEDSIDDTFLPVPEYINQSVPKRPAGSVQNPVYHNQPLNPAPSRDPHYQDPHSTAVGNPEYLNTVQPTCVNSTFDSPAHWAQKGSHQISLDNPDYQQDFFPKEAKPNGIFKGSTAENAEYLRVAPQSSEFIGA

SMILES | pIC50 (WT EGFR) | AUC(0-t) ([2]; IV 0.5 mg/kg) [µg·h/mL] | Cmax ([2]; IV 0.5 mg/kg) [µg/mL] | Tmax ([2]; IV 0.5 mg/kg) [h] | half-life ([2]; IV 0.5 mg/kg) [h] | AUC(0-inf) ([2]; IV 0.5 mg/kg) [µg·h/mL] | MRT inf ([2]; IV 0.5 mg/kg) [h] | AUC(0-t) ([2]; PO 10 mg/kg) [µg·h/mL] | Cmax ([2]; PO 10 mg/kg) [µg/mL] | Tmax ([2]; PO 10 mg/kg) [h] | half-life ([2]; PO 10 mg/kg) [h] | bioavailability [2] [%] | Cl_pred ([2]; IV 0.5 mg/kg) [L/h/kg] | Vz_pred ([2]; IV 0.5 mg/kg) [L/kg] | Cl_pred ([2]; PO 10 mg/kg) [L/h/kg] | Vz_pred ([2]; PO 10 mg/kg) [L/kg] | pIC50 (EGFR[L858R/T790M]) | IC50 [1] [nM] | pIC50 (skin cancer cell A431) | IC50 [3] [nM] | further results
C=CC(=O)Nc1cc(Nc2nccc(-n3cc(CN(C)C)c(-c4ccccc4)n3)n2)c(OC)nc1N1CCOCC1 [Compound T-1, N-(5-((4-(4-((dimethylamino)methyl)-3-phenyl-1H-pyrazol-1-yl)pyrimidin-2-yl)amino)-6-methoxy-2-morpholinopyridin-3-yl)acrylamide] | 8.89 | 0.328 | 0.246 | 0.08 | 2.8 | 0.341 | 2.32 | 1.43 | 0.0911 | 5.33 | 8.69 | 21.8 | 1.47 | 5.94 | 5.85 | 73.39 | 9.40 | 3.64 | 6.59 | 2.43 | AUC(0-inf) ([2]; PO 10 mg/kg): 1.79 µg·h/mL; MRT inf ([2]; PO 10 mg/kg): 9.11 h
C=CC(=O)Nc1cc(Nc2ncc(F)c(-n3cc(CN(C)C)c(-c4ccccc4)n3)n2)c(OC)nc1N1CCOCC1 [Compound T-2, N-(5-((4-(4-((dimethylamino)methyl)-3-phenyl-1H-pyrazol-1-yl)-5-fluoropyrimidin-2-yl)amino)-6-methoxy-2-morpholinopyridin-3-yl) acrylamide] | 8.48 | 0.285 | 0.268 | 0.08 | 2.17 | 0.289 | 1.95 | 0.753 | 0.0693 | 2.33 | 6.4 | 25.1 | 1.75 | 5.49 | 12.05 | 111.2 | 9.36 | 8.25 | 5.85 | 9.51 | AUC(0-inf) ([2]; PO 10 mg/kg): 0.84 µg·h/mL; MRT inf ([2]; PO 10 mg/kg): 7.67 h
C=CC(=O)Nc1cc(Nc2ncc(C)c(-n3cc(CN(C)C)c(-c4ccccc4)n3)n2)c(OC)nc1N1CCOCC1 [Compound T-3, N-(5-((4-(4-((dimethylamino)methyl)-3-phenyl-H-pyrazol-1-yl)-5-methylpyrimidin-2-yl)amino)-6-methoxy-2-morpholinopyridin-3-yl)acrylamide] | 8.20 |  |  |  |  |  |  |  |  |  |  |  |  |  |  |  | 9.22 | 12.1 | 6.47 | 21.9 | 
C=CC(=O)Nc1cc(Nc2nccc(-n3cc(CN(C)C)c(-c4ccccc4)n3)n2)c(OC)cc1N1CCOCC1 [YH25448, reference compound] |  |  |  |  |  |  |  |  |  |  |  |  | 1.05 | 5.73 | 5.65 | 61.56 |  |  |  |  | 

More lines, in order of rising pIC50 (WT EGFR), values ahead:

pIC50 (WT EGFR) | AUC(0-t) ([2]; IV 0.5 mg/kg) [µg·h/mL] | Cmax ([2]; IV 0.5 mg/kg) [µg/mL] | Tmax ([2]; IV 0.5 mg/kg) [h] | half-life ([2]; IV 0.5 mg/kg) [h] | AUC(0-inf) ([2]; IV 0.5 mg/kg) [µg·h/mL] | MRT inf ([2]; IV 0.5 mg/kg) [h] | AUC(0-t) ([2]; PO 10 mg/kg) [µg·h/mL] | Cmax ([2]; PO 10 mg/kg) [µg/mL] | Tmax ([2]; PO 10 mg/kg) [h] | half-life ([2]; PO 10 mg/kg) [h] | bioavailability [2] [%] | Cl_pred ([2]; IV 0.5 mg/kg) [L/h/kg] | Vz_pred ([2]; IV 0.5 mg/kg) [L/kg] | Cl_pred ([2]; PO 10 mg/kg) [L/h/kg] | Vz_pred ([2]; PO 10 mg/kg) [L/kg] | pIC50 (EGFR[L858R/T790M]) | SMILES | IC50 [1] [nM] | pIC50 (skin cancer cell A431) | IC50 [3] [nM] | further results
8.70 |  |  |  |  |  |  |  |  |  |  |  |  |  |  |  | 9.09 | C=CC(=O)Nc1cc(Nc2nccc(-n3cc(CN(C)C)c(-c4ccccc4)n3)n2)c(OC(C)C)nc1N1CCOCC1 [Compound T-4, N-(5-((4-(4-((dimethylamino)methyl)-3-phenyl-1H-pyrazol-1-yl)-pyrimidin-2-yl)amino)-6-isopropoxy-2-morpholinopyridin-3-yl)acrylamide] | 5.06 | 6.89 | 13.2 | 
9.26 |  |  |  |  |  |  |  |  |  |  |  |  |  |  |  | 8.94 | C=CC(=O)Nc1cc(Nc2nccc(-c3cc(CN(C)C)n(-c4ccccc4)n3)n2)c(OC)cc1N1CCOCC1 [Compound T-7, N-(5-((4-(5-((dimethylamino)methyl)-1-phenyl-1H-pyrazol-3-yl)pyrimidin-2-yl)amino)-4-methoxy-2-morpholinophenyl)acrylamide] | 4.44 | 6.65 | 23.5 | 
